Values quoted from earlier work, collected in US20230028307A1, “TREATMENT OF NEUROLOGICAL DISORDERS WITH AVERMECTINS” (Equilibre BioPharmaceuticals BV, priority 2020, published 2023).

Columns and labels:
[1] = humans, relatively large doses
[2] = test system: episodes of epileptic attack; conditions: patients suffering from onchoceriasis treated with ivermectin

## ivermectin
[1]
  side effects: no significant side effects
[2]
  episodes of epileptic attack: reduced
